Test results reported in patent publication US10131653B2, “Heterocyclic compound” (TAKEDA PHARMACEUTICAL COMPANY LIMITED, priority 2015, dated 2018).

How the values were obtained:
[1] = tested on: Orexin-A-induced rats; assay: Locomotor activity test using Orexin-A-induced rats; assay type: in vivo; conditions: rat; for Locomotor activity increased by cerebral ventricular administration of Orexin-A: 30 mg/kg subcutaneous; for Locomotor activity (Counts/90 min): 30 mg/kg subcutaneous 30 min before Orexin-A (1 nmol) cerebral ventricular administration, mean
Description: The male SD rats described in Experimental Example 2 were used.
From the day before drug administration, the animals were acclimated to a locomotor activity measurement apparatus (Muromachi Kikai Co., Ltd.). Solvent (0.5% (w/v) methyl cellulose solution) and the compound (30 mg/kg) of Example 1 or the compound (30 mg/kg) of Example 2 were subcutaneously administered 30 min before administration of saline or Orexin-A (1 nmol). The locomotor activity was quantified for 30 min to 90 min after the cerebral ventricular administration of Orexin-A. A comparison with saline+solvent administration group was tested by Student's t-test (*p≤0.05). A comparison with Orexin-A+solvent administration group was tested by Dunnett's test (#p≤0.05).

[2] = biological target: T1, human OX2 receptor (Homo sapiens, UniProt O43614); assay: Measurement of orexin receptor antagonistic activity (calcium fluorescence, FLIPRtetra); assay type: cell-based; conditions: CHO, 10 μM test compound; CHO cells expressing human OX2 receptor; OX-A 0.3 nM; read-out: Human Orexin2 receptor inhibition (at 10 μM)
T1 construct: expressed in transfected cells; host or cells: CHO cells
T1 sequence (O43614 1-444): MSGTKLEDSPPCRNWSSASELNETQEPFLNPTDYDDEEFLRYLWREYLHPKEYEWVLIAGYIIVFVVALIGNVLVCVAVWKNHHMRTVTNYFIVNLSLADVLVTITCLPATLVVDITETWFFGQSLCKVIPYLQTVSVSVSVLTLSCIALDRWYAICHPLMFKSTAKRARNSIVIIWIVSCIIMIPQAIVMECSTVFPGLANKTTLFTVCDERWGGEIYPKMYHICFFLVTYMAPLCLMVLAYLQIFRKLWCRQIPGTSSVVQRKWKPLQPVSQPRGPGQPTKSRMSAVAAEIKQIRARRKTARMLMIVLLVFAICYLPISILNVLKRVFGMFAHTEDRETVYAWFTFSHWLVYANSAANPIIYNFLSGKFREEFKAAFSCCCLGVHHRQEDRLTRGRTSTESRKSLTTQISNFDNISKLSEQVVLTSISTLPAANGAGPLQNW
Summary of the method: (§1)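 Calcium fluorescence measured by FLIPRtetra every second for 2 min after orexin-A challenge, 1 nM final for OX1 and 0.3 nM final for OX2. Receptor-expressing CHO cells received compound in HEPES-buffered HBSS with 0.1% BSA just before agonist.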

[3] = biological target: T2, human OX1 receptor (Homo sapiens, UniProt O43613); assay: as above; assay type: cell-based; conditions: CHO, 10 μM test compound; CHO cells expressing human OX1 receptor; OX-A 1 nM; read-out: Human Orexin1 receptor inhibition (at 10 μM)
T2 construct: expressed in transfected cells; host or cells: CHO cells
T2 sequence (O43613 1-425): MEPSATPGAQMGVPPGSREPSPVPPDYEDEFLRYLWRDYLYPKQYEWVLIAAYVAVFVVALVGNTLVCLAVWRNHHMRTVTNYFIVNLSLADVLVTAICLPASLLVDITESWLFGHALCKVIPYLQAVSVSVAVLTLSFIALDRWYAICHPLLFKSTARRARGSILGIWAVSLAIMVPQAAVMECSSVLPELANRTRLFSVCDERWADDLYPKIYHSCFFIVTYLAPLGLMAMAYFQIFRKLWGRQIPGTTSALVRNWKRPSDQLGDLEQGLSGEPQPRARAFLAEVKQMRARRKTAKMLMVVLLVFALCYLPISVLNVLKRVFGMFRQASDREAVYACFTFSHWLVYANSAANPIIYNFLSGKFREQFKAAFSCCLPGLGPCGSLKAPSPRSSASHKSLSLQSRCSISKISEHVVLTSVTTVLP
Summary of the method: as §1

[4] = Measurement of solubility; assay type: physicochemical; conditions: aqueous buffer, thermodynamic from solid; Britton-Robinson's Buffer pH 3, 37° C., shaking 2 hr; crystals from n-heptane suspension
Description: n-Heptane was added to the compounds of Examples 1, 2 and 102 at 40 mg/mL, respectively, and the mixtures were continued to be stirred at room temperature in a suspended state. After 3 to 7 days, the mixtures were filtered, and the obtained crystals as a sample were subjected to powder X-ray diffraction measurement (measurement condition: mentioned above) and solubility measurement.

| Structure (SMILES) | inhibition at 10 µM [2] [%] | inhibition at 10 µM [3] [%] | solubility at 2 h [4] [mg/mL] | Locomotor activity increased by cerebral ventricular administration of Orexin-A [1] | Locomotor activity (Counts/90 min) [1] [Counts/90 min] |
| --- | --- | --- | --- | --- | --- |
| Cc1cc(N2CCN(C(=O)c3cc(F)ccc3-n3nccn3)C[C@H](C)O2)nc(C)n1 [Example 1, ((7S)-2-(2,6-dimethylpyrimidin-4-yl)-7-methyl-1,2,5-oxadiazepan-5-yl)(5-fluoro-2-(2H-1,2,3-triazol-2-yl)phenyl)methanone] | 98 | 47 | ≥ 5 | significantly decreased | 3528 |
| Cc1cc(N2CCN(C(=O)c3ccccc3-n3nccn3)C[C@H](C)O2)nc(C)n1 [Example 2, ((7S)-2-(2,6-dimethylpyrimidin-4-yl)-7-methyl-1,2,5-oxadiazepan-5-yl)(2-(2H-1,2,3-triazol-2-yl)phenyl)methanone] | 101 | 68 | ≥ 5 | significantly decreased | 2638 |
| Cc1cc(N2CCN(C(=O)c3c(C)cccc3-c3ncccn3)CCO2)nc(C)n1 [Example 216, (2-(2,6-dimethylpyrimidin-4-yl)-1,2,5-oxadiazepan-5-yl)(2-methyl-6-(pyrimidin-2-yl)phenyl)methanone] | 101 | 59 | – | – | – |
| Cc1ccc(C(=O)N2CCN(c3cc(C)nc(C)n3)O[C@@H](C)C2)c(-c2ncccn2)c1 [Example 217, ((7S)-2-(2,6-dimethylpyrimidin-4-yl)-7-methyl-1,2,5-oxadiazepan-5-yl)(4-methyl-2-(pyrimidin-2-yl)phenyl)methanone] | 101 | 50 | – | – | – |
| Cc1cc(N2CCN(C(=O)c3ccc(F)cc3-c3ncccn3)C[C@H](C)O2)nc(C)n1 [Example 218, ((7S)-2-(2,6-dimethylpyrimidin-4-yl)-7-methyl-1,2,5-oxadiazepan-5-yl)(4-fluoro-2-(pyrimidin-2-yl)phenyl)methanone] | 101 | 91 | – | – | – |
| Cc1nccc(N2CCN(C(=O)c3cc(Cl)ccc3-c3ncccn3)C[C@H](C)O2)n1 [Example 219, (5-chloro-2-(pyrimidin-2-yl)phenyl)((7S)-7-methyl-2-(2-methylpyrimidin-4-yl)-1,2,5-oxadiazepan-5-yl)methanone] | 100 | 72 | – | – | – |
| Cc1cc(N2CCN(C(=O)c3cccc(F)c3-c3ncccn3)C[C@H](C)O2)nc(C)n1 [Example 220, ((7S)-2-(2,6-dimethylpyrimidin-4-yl)-7-methyl-1,2,5-oxadiazepan-5-yl)(3-fluoro-2-(pyrimidin-2-yl)phenyl)methanone] | 101 | 15 | – | – | – |
| Cc1cc(N2CCN(C(=O)c3cc(Cl)ccc3-c3ncc(F)cn3)[C@H](C)CO2)nc(C)n1 [Example 221, (5-chloro-2-(5-fluoropyrimidin-2-yl)phenyl)((6R)-2-(2,6-dimethylpyrimidin-4-yl)-6-methyl-1,2,5-oxadiazepan-5-yl)methanone] | 102 | 51 | – | – | – |
| Cc1cc(N2CCN(C(=O)c3ccccc3-c3ncc(F)cn3)CCO2)nc(C)n1 [Example 222, (2-(2,6-dimethylpyrimidin-4-yl)-1,2,5-oxadiazepan-5-yl)(2-(5-fluoropyrimidin-2-yl)phenyl)methanone] | 99 | 32 | – | – | – |
| Cc1cc(N2CCN(C(=O)c3cc(F)c(F)cc3-c3ncc(F)cn3)CCO2)nc(C)n1 [Example 223, (4,5-difluoro-2-(5-fluoropyrimidin-2-yl)phenyl)(2-(2,6-dimethylpyrimidin-4-yl)-1,2,5-oxadiazepan-5-yl)methanone] | 101 | 17 | – | – | – |

Now from value to molecule, other results behind:

| inhibition at 10 µM [2] [%] | inhibition at 10 µM [3] [%] | solubility at 2 h [4] [mg/mL] | Structure (SMILES) | Locomotor activity increased by cerebral ventricular administration of Orexin-A [1] | Locomotor activity (Counts/90 min) [1] [Counts/90 min] |
| --- | --- | --- | --- | --- | --- |
| 100 | 53 | – | Cc1cc(N2CCN(C(=O)c3cc(Cl)ccc3-c3ncc(F)cn3)CCO2)nc(C)n1 [Example 224, (5-chloro-2-(5-fluoropyrimidin-2-yl)phenyl)(2-(2,6-dimethylpyrimidin-4-yl)-1,2,5-oxadiazepan-5-yl)methanone] | – | – |
| 103 | 74 | – | Cc1nc(N2CCN(C(=O)c3cc(Cl)ccc3-c3ncccn3)CCO2)cc(C(F)(F)F)n1 [Example 225, (5-chloro-2-(pyrimidin-2-yl)phenyl)(2-(2-methyl-6-(trifluoromethyl)pyrimidin-4-yl)-1,2,5-oxadiazepan-5-yl)methanone] | – | – |
| 101 | 80 | – | Cc1cc(N2CCN(C(=O)c3cc(Cl)ccc3-c3ncccn3)CCO2)nc(C)n1 [Example 226, (5-chloro-2-(pyrimidin-2-yl)phenyl)(2-(2,6-dimethylpyrimidin-4-yl)-1,2,5-oxadiazepan-5-yl)methanone] | – | – |
| 97 | 78 | – | Cc1nc(N2CCN(C(=O)c3cc(F)c(F)cc3-c3ncccn3)C[C@H](C)O2)cc(C(F)(F)F)n1 [Example 227, (4,5-difluoro-2-(pyrimidin-2-yl)phenyl)((7S)-7-methyl-2-(2-methyl-6-(trifluoromethyl)pyrimidin-4-yl)-1,2,5-oxadiazepan-5-yl)methanone] | – | – |
| 99 | 36 | – | Cc1cc(N2CCN(C(=O)c3cc(F)c(F)cc3-c3ncccn3)CCO2)nc(C)n1 [Example 228, (4,5-difluoro-2-(pyrimidin-2-yl)phenyl)(2-(2,6-dimethylpyrimidin-4-yl)-1,2,5-oxadiazepan-5-yl)methanone] | – | – |
| 101 | 40 | – | Cc1nccc(N2CCN(C(=O)c3cc(Cl)ccc3-c3ncccn3)[C@H](C)CO2)n1 [Example 229, (5-chloro-2-(pyrimidin-2-yl)phenyl)((6R)-6-methyl-2-(2-methylpyrimidin-4-yl)-1,2,5-oxadiazepan-5-yl)methanone] | – | – |
| 103 | 66 | – | Cc1ncc(Cl)c(N2CCN(C(=O)c3cc(Cl)ccc3-c3ncccn3)[C@H](C)CO2)n1 [Example 230, ((6R)-2-(5-chloro-2-methylpyrimidin-4-yl)-6-methyl-1,2,5-oxadiazepan-5-yl)(5-chloro-2-(pyrimidin-2-yl)phenyl)methanone] | – | – |
| 103 | 38 | – | Cc1cc(N2CCN(C(=O)c3cc(F)c(F)cc3-c3ncccn3)[C@H](C)CO2)nc(C)n1 [Example 231, (4,5-difluoro-2-(pyrimidin-2-yl)phenyl)((6R)-2-(2,6-dimethylpyrimidin-4-yl)-6-methyl-1,2,5-oxadiazepan-5-yl)methanone] | – | – |
| 102 | 55 | – | Cc1cc(N2CCN(C(=O)c3ccccc3-c3noc(C)n3)C[C@H](C)O2)nc(C)n1 [Example 232, ((7S)-2-(2,6-dimethylpyrimidin-4-yl)-7-methyl-1,2,5-oxadiazepan-5-yl)(2-(5-methyl-1,2,4-oxadiazol-3-yl)phenyl)methanone] | – | – |
| 87 | 17 | – | COC(=O)c1ccccc1C(=O)N1CCN(c2cc(C)nc(C)n2)O[C@@H](C)C1 [Example 233, methyl 2-(((7S)-2-(2,6-dimethylpyrimidin-4-yl)-7-methyl-1,2,5-oxadiazepan-5-yl)carbonyl)benzoate] | – | – |
